Test results published in ChEMBL document CHEMBL1201862, “PubChem BioAssay data set” (2004).
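1) Cells in 96-well plates. 2) Compound, 48 h, 5 concentrations. 3) Linear interpolation between surrounding doses. 4) Unreached endpoint = highest concentration. GI50 marks 50% less growth.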 The source made the active and inactive calls. No stated cut-off is given here; in the data, active = GI50 up to about 1.1 µM and inactive = higher.

Legend:
Experiment in all cases: NCI anticancer screen, dose series, 48 h
COLO 205 = tested on: COLO 205
A498 = tested on: A498
MCF7 = tested on: MCF7
MOLT-4 = tested on: MOLT-4
SNB-19 = tested on: SNB-19
SK-MEL-2 = tested on: SK-MEL-2
SK-MEL-28 = tested on: SK-MEL-28
HCT-15 = tested on: HCT-15
UO-31 = tested on: UO-31
NCI-H522 = tested on: NCI-H522
HCT-116 = tested on: HCT-116
HCC 2998 = tested on: HCC 2998
MDA-MB-231 = tested on: MDA-MB-231
OVCAR-5 = tested on: OVCAR-5
SF-268 = tested on: SF-268
SF-295 = tested on: SF-295
PC-3 = tested on: PC-3
OVCAR-4 = tested on: OVCAR-4
NCI-H23 = tested on: NCI-H23
786-0 = tested on: 786-0
DU-145 = tested on: DU-145
OVCAR-3 = tested on: OVCAR-3
KM12 = tested on: KM12
HOP-62 = tested on: HOP-62
A549 = tested on: A549
IGROV-1 = tested on: IGROV-1
SN12C = tested on: SN12C
LOX IMVI = tested on: LOX IMVI
SW-620 = tested on: SW-620
U-251 = tested on: U-251
HT-29 = tested on: HT-29
K562 = tested on: K562
ACHN = tested on: ACHN
EKVX = tested on: EKVX
UACC-62 = tested on: UACC-62
NCI/ADR-RES = tested on: NCI/ADR-RES
MDA-MB-435 = tested on: MDA-MB-435
UACC-257 = tested on: UACC-257
SK-OV-3 = tested on: SK-OV-3
SR = tested on: SR
NCI-H226 = tested on: NCI-H226
M14 = tested on: M14
SK-MEL-5 = tested on: SK-MEL-5
TK-10 = tested on: TK-10
SF-539 = tested on: SF-539
HL-60 = tested on: HL-60
MDA-N = tested on: MDA-N
CAKI-1 = tested on: CAKI-1
BT-549 = tested on: BT-549
CCRF-CEM = tested on: CCRF-CEM
RPMI-8226 = tested on: RPMI-8226
T47D = tested on: T47D
OVCAR-8 = tested on: OVCAR-8
Malme-3M = tested on: Malme-3M
NCI-H460 = tested on: NCI-H460
Hs-578T = tested on: Hs-578T
HOP-92 = tested on: HOP-92
RXF 393 = tested on: RXF 393

For `CSc1ncnc2c1cnn2Cc1cnnn1COCC(O)CO` (stereo not given), the GI50 (COLO 205) was > 100 µM (inactive), the GI50 (A498) was > 100 µM (inactive) and the GI50 (MCF7) was > 100 µM (inactive). The GI50 (MOLT-4) was > 100 µM (inactive), the GI50 (SNB-19) was > 100 µM (inactive) and the GI50 (SK-MEL-2) was > 100 µM (inactive). The GI50 (SK-MEL-28) was > 100 µM (inactive), the GI50 (HCT-15) was greater than 100 µM and the GI50 (UO-31) was > 100 µM (inactive). For the same compound, the GI50 (NCI-H522) was 11.1 µM (inactive), the GI50 (HCT-116) was > 100 µM (inactive) and the GI50 (HCC 2998) was > 100 µM (inactive). For the same compound, the GI50 (MDA-MB-231) was > 100 µM (inactive), the GI50 (OVCAR-5) was > 100 µM (inactive) and the GI50 (SF-268) was 13.8 µM (inactive). The GI50 (SF-295) was > 100 µM (inactive), the GI50 (PC-3) was > 100 µM (inactive) and the GI50 (OVCAR-4) was > 100 µM (inactive). For the same compound, the GI50 (NCI-H23) was > 100 µM (inactive), the GI50 (786-0) was > 100 µM (inactive) and the GI50 (DU-145) was > 100 µM (inactive). For the same compound, the GI50 (OVCAR-3) was > 100 µM (inactive), the GI50 (KM12) was > 100 µM (inactive) and the GI50 (HOP-62) was > 100 µM (inactive). For the same compound, the GI50 (A549) was > 100 µM (inactive), the GI50 (IGROV-1) was > 100 µM (inactive) and the GI50 (SN12C) was > 100 µM (inactive). For the same compound, the GI50 (LOX IMVI) was > 100 µM (inactive), the GI50 (SW-620) was > 100 µM (inactive) and the GI50 (U-251) was > 100 µM (inactive). For the same compound, the GI50 (HT-29) was > 100 µM (inactive), the GI50 (K562) was > 100 µM (inactive) and the GI50 (ACHN) was > 100 µM (inactive). The GI50 (EKVX) was > 100 µM (inactive), the GI50 (UACC-62) was > 100 µM (inactive) and the GI50 (NCI/ADR-RES) was > 100 µM (inactive). For the same compound, the GI50 (MDA-MB-435) was > 100 µM (inactive), the GI50 (UACC-257) was > 100 µM (inactive) and the GI50 (SK-OV-3) was > 100 µM (inactive). The GI50 (SR) was > 100 µM (inactive), the GI50 (NCI-H226) was > 100 µM (inactive) and the GI50 (M14) was > 100 µM (inactive). The GI50 (SK-MEL-5) was > 100 µM (inactive), the GI50 (TK-10) was > 100 µM (inactive) and the GI50 (SF-539) was > 100 µM (inactive). For the same compound, the GI50 (HL-60) was > 100 µM (inactive), the GI50 (MDA-N) was > 100 µM (inactive) and the GI50 (CAKI-1) was > 100 µM (inactive). The GI50 (BT-549) was > 100 µM (inactive), the GI50 (CCRF-CEM) was > 100 µM (inactive) and the GI50 (RPMI-8226) was > 100 µM (inactive). The GI50 (T47D) was > 100 µM (inactive) and the GI50 (OVCAR-8) was > 100 µM (inactive).
For `COC(=O)c1c2c(cc3c1CC1(Cc4cc5c(c(C)c4C1)CCC5)C3)CCC2` (stereo not given), the GI50 (A498) was > 100 µM (inactive), the GI50 (MCF7) was > 100 µM (inactive) and the GI50 (MOLT-4) was > 100 µM (inactive). For the same compound, the GI50 (SNB-19) was > 100 µM (inactive), the GI50 (SK-MEL-2) was > 100 µM (inactive) and the GI50 (SK-MEL-28) was > 100 µM (inactive). The GI50 (Malme-3M) was > 100 µM (inactive), the GI50 (HCT-15) was greater than 100 µM and the GI50 (UO-31) was > 100 µM (inactive). The GI50 (NCI-H522) was > 100 µM (inactive), the GI50 (HCT-116) was > 100 µM (inactive) and the GI50 (HCC 2998) was > 100 µM (inactive). The GI50 (MDA-MB-231) was > 100 µM (inactive), the GI50 (OVCAR-5) was > 100 µM (inactive) and the GI50 (SF-268) was > 100 µM (inactive). For the same compound, the GI50 (NCI-H460) was > 100 µM (inactive), the GI50 (SF-295) was > 100 µM (inactive) and the GI50 (PC-3) was > 100 µM (inactive). For the same compound, the GI50 (OVCAR-4) was > 100 µM (inactive), the GI50 (NCI-H23) was > 100 µM (inactive) and the GI50 (786-0) was > 100 µM (inactive). The GI50 (DU-145) was > 100 µM (inactive), the GI50 (OVCAR-3) was > 100 µM (inactive) and the GI50 (HOP-62) was > 100 µM (inactive). The GI50 (A549) was > 100 µM (inactive), the GI50 (IGROV-1) was > 100 µM (inactive) and the GI50 (LOX IMVI) was > 100 µM (inactive). For the same compound, the GI50 (SW-620) was > 100 µM (inactive), the GI50 (U-251) was > 100 µM (inactive) and the GI50 (Hs-578T) was > 100 µM (inactive). For the same compound, the GI50 (HT-29) was > 100 µM (inactive), the GI50 (K562) was > 100 µM (inactive) and the GI50 (ACHN) was > 100 µM (inactive). The GI50 (EKVX) was > 100 µM (inactive), the GI50 (HOP-92) was > 100 µM (inactive) and the GI50 (RXF 393) was 90.4 µM (inactive). For the same compound, the GI50 (NCI/ADR-RES) was > 100 µM (inactive), the GI50 (MDA-MB-435) was > 100 µM (inactive) and the GI50 (UACC-257) was > 100 µM (inactive). The GI50 (SK-OV-3) was > 100 µM (inactive), the GI50 (SR) was > 100 µM (inactive) and the GI50 (M14) was > 100 µM (inactive). The GI50 (SK-MEL-5) was > 100 µM (inactive), the GI50 (TK-10) was > 100 µM (inactive) and the GI50 (SF-539) was > 100 µM (inactive). The GI50 (HL-60) was > 100 µM (inactive), the GI50 (MDA-N) was > 100 µM (inactive) and the GI50 (CAKI-1) was > 100 µM (inactive). The GI50 (CCRF-CEM) was > 100 µM (inactive), the GI50 (RPMI-8226) was > 100 µM (inactive) and the GI50 (T47D) was > 100 µM (inactive). The GI50 (OVCAR-8) was > 100 µM (inactive).
